Results reported in paper PMC7321114, “Anion Inhibition Studies of the Beta-Carbonic Anhydrase from Escherichia coli” (Molecules, 2020).

The compounds below were run against T1, CynT2 (Escherichia coli, UniProt P61517) (assay: stopped-flow CO2 hydration assay). Conditions: CO2 substrate 1.7-17 mM, pH 8.3, 20 mM Tris, 20 mM NaClO4, 15 min preincubation; read-out: KI (mM) ^1 / CynT2.
T1 construct: gene can; full-length synthetic gene, 220 residues, no signal peptide, N-terminal His6 fusion (pET100D-Topo), expressed in E. coli BL21(DE3) codon plus, about 29 kDa subunit, tag removal not mentioned
Format: biochemical

T1 sequence (P61517 whole entry, the tested form may be a part): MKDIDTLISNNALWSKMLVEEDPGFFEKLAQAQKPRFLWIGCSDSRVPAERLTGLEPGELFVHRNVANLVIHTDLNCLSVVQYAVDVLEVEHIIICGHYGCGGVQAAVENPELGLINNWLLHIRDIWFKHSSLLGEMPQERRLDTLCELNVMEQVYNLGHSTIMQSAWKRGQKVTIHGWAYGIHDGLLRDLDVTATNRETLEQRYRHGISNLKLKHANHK

First: OB1OB2OB(O)OB(O1)O2 [B4O7^2−]
Second: F[P-](F)(F)(F)(F)F [PF6^−]
The Ki of the first is lower: 0.25 mM for the first, over 10 mM for the second. The first binds more tightly here.

Same assay, conditions: read-out: KI (mM) ^1 / CynT2

Going from `Br` [Br^−] to `O=S(=O)(O)C(F)(F)F` [CF3SO3^−], the Ki rises from 3.8 mM to over 10 mM.

Compared with `N#CO` [CNO^−], `N#CS` [SCN^−] is 9.8-fold higher in Ki: 0.58 mM for the first, 5.7 mM for the second.

Going from `S=C(S)S` [CS3^2−] to `CCN(CC)C(=S)S` [EtNCS2^−], the Ki falls from 3.1 mM to 0.084 mM (37-fold). The second binds more tightly here.

Going from `[O-][Cl+3]([O-])([O-])O` [ClO4^−] to `O=[N+]([O-])O` [NO3^−], the Ki falls from over 100 mM to 2.4 mM. The second binds more tightly here.

First: Cl [Cl^−]
Second: O=S(=O)(O)F [FSO3^−]
The Ki of the first is 8.1-fold higher: 6.7 mM for the first, 0.83 mM for the second.

Compared with `F` [F^−], `O=S(O)O` [HSO3^−] is 2.5-fold lower in Ki: 9.4 mM for the first, 3.7 mM for the second.

Compared with `S` [HS^−], `I` [I^−] is higher in Ki: 2.7 mM for the first, over 10 mM for the second.

First: NS(N)(=O)=O [NH2SO2NH2]
Second: NS(=O)(=O)O [NH2SO3H]
The Ki of the first is 4.4-fold higher: 0.011 mM for the first, 0.0025 mM for the second. The second binds more tightly here.

Compared with `O=S(=O)(O)NS(=O)(=O)O` [NH(SO3)2^2−], `O=S(=O)(O)OOS(=O)(=O)O` [S2O8^2−] is 4.3-fold higher in Ki: 1.5 mM for the first, 6.4 mM for the second. The first binds more tightly here.

First: O=NO [NO2^−]
Second: [O]=[Re](=[O])(=[O])[OH] [ReO4^−]
The Ki of the first is lower: 4.9 mM for the first, over 10 mM for the second.

`O=P(O)(O)OP(=O)(O)O` [P2O7^2−] and `[O]=[V]([OH])([OH])[O][V](=[O])([OH])[OH]` [V2O7^2−] cannot be ordered by Ki: over 10 mM for the first, over 10 mM for the second.

Going from `OB(O)c1ccccc1` [PhB(OH)2] to `[O]=[Ru](=[O])(=[O])[OH]` [RuO4^−], the Ki rises from 0.0028 mM to 9.5 mM (3400-fold). The first binds more tightly here.

Going from `O=S(=O)(O)O` [SO4^2−] to `O=[Se](=O)(O)O` [SeO4^2−], the Ki rises from 1.7 mM to 3.1 mM (1.8-fold). The first binds more tightly here.

Compared with `N#C[SeH]` [SeCN^−], `O=[Te](=O)(O)O` [TeO4^2−] is 6.1-fold lower in Ki: 3.1 mM for the first, 0.51 mM for the second. The second binds more tightly here.
